Experiments:
[1] = tested on: novel object recognition (cognition) in rats; test: Object recognition task model; assay type: in vivo, rat; conditions: 10 mg/kg p.o.; for Exploration time mean ± S.E.M, Familiar object / Exploration time mean ± S.E.M, Novel object: choice trial T2 24 hours after T1
Procedure: The cognition-enhancing properties of compounds of this invention were estimated using a model of animal cognition: the object recognition task model.
Male Wister rats (230-280 grams) obtained from N. I. N. (National Institute of Nutrition, Hyderabad, India) was used as experimental animals. Four animals were housed in each cage. Animals were kept on 20% food deprivation before one day and given water ad libitum throughout the experiment and maintained on a 12 hours light/dark cycle. Also the rats were habituated to individual arenas for 1 hour in the absence of any objects.
One group of 12 rats received vehicle (1 mL/Kg) orally and another set of animals received compound of the formula (I) either orally or i.p., before one hour of the familiar (T1) and choice trial (T2).
The experiment was carried out in a 50×50×50 cm open field made up of acrylic. In the familiarization phase (T1), the rats were placed individually in the open field for 3 minutes, in which two identical objects (plastic bottles, 12.5 cm height×5.5 cm diameter) covered in yellow masking tape alone (a1 and a2) were positioned in two adjacent corners, 10 cm. from the walls. After 24 hours of the (T1) trial for long-term memory test, the same rats were placed in the same arena as they were placed in (T1) trial. Choice phase (T2) rats were allowed to explore the open field for 3 minutes in presence of one familiar object (a3) and one novel object (b) (Amber color glass bottle, 12 cm high and 5 cm in diameter). Familiar objects presented similar textures, colors and sizes. During the T1 and T2 trial, explorations of each object (defined as sniffing, licking, chewing or having moving vibrissae whilst directing the nose towards the object at a distance of less than 1 cm) were recorded separately by stopwatch. Sitting on an object was not regarded as exploratory activity, however, it was rarely observed.
T1 is the total time spent exploring the familiar objects (a 1+a2).
T2 is the total time spent exploring the familiar object and novel object (a3+b).
The object recognition test was performed as described by Ennaceur, A., Delacour, J., 1988, A new one-trial test for neurobiological studies of memory in rats—Behavioural data, Behav. Brain Res., 31, 47-59.

[2] = biological target: T1, recombinant human 5-HT4 receptor (Homo sapiens, UniProt Q13639); test: Determination of EC50 values for 5-HT4 receptor (CRE-luciferase reporter, CHO cells); assay type: cell-based; conditions: stable CHO cell line expressing recombinant human 5-HT4 receptor and pCRE-Luc reporter; 4 hours incubation; luciferase activity
T1 construct: expressed in transfected cells
T1 sequence (Q13639 whole entry): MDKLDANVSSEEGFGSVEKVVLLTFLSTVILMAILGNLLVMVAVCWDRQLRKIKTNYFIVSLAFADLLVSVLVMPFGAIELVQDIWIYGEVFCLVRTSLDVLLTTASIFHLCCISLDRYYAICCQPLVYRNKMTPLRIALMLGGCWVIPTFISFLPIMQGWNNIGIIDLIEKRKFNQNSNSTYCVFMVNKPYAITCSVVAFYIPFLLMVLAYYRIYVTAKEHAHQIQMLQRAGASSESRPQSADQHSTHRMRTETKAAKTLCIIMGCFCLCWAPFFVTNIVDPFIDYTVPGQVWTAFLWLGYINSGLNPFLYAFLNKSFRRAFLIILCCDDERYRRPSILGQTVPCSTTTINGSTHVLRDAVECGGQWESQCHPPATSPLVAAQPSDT
Procedure: A stable CHO cell line expressing recombinant human 5-HT4 receptor and pCRE-Luc reporter system was used for cell-based assay. The assay offers a non-radioactive based approach to determine binding of a compound to GPCRs. In this specific assay, the level of intracellular cyclic AMP which is modulated by activation or inhibition of the receptor is measured. The recombinant cells harbor luciferase reporter gene under the control of cAMP response element.
The above cells were grown in 96 well clear bottom white plates in Hams F12 medium containing 10% fetal bovine serum (FBS). Prior to the addition of compounds or standard agonist, cells were serum starved overnight. Increasing concentrations of test compounds were added in OptiMEM medium to the cells. The incubation was continued at 37° C. in CO2 incubator for 4 hours. Medium was removed and cells were washed with phosphate buffered saline. The cells were lysed and luciferase activity was measured in a Luminometer. Luminescence units were plotted against the compound concentrations using Graphpad software. EC50 values of the compounds were defined as the concentration required in stimulating the luciferase activity by 50%.

[3] = Rodent brain penetration study; assay type: in vivo; conditions: Wistar, rat; Wister/Male rats, 10 mg/kg, Oral, vehicle Water; brain/plasma; read-out: Steady State Brain Penetration (Cb/Cp)
Procedure: Male Wister rats (230-280 grams) obtained from NIN (National Institute of Nutrition, Hyderabad, India) was used as an experimental animal. Three animals were housed in each cage. Animals were given water and food ad libitum throughout the experiment, and maintained on a 12 hours light/dark cycle.
Brain penetration was determined in discrete manner in rats. One day prior to dosing day, male wistar rats (225-250 grams) were acclimatized. After acclimatization the rats were grouped according to the weight in each group, 3 animals were kept in individual cage and allowed free access to food and water. At each time point (0.5, 1, and 2 hours) n=3 animals were used.
NCE compound was dissolved in water and administered orally at (free base) 10 mg/kg. Blood samples were removed via, cardiac puncture by using isofurane anesthesia the animals were sacrificed to collect brain tissue. Plasma was separated and Brain samples were homogenized and stored frozen at −20° C. until analysis. The concentrations of the NCE compound in plasma and Brain were determined using LC-MS/MS method.
The NCE compounds were quantified in plasma and brain homogenate by validated LC-MS/MS method using solid phase extraction technique. NCE compounds were quantified in the calibration range of 1-500 ng/mL in plasma and brain homogenate. Study samples were analyzed using calibration samples in the batch and quality control samples spread across the batch. Extents of brain-blood ratio were calculated (Cb/Cp).

[4] = Rodent pharmacokinetic study; assay type: in vivo; conditions: Wistar, rat, plasma, Wister/Male rats, 5 mg/kg; for bioavailability: Oral versus Intravenous; for AUC(0-t) / Cmax / Tmax / half-life: vehicle Water
Procedure: Male Wister rats (230-280 grams) obtained from NIN (National Institute of Nutrition, Hyderabad, India) was used as an experimental animal. Three to five animals were housed in each cage. One day prior to dosing day, male wistar rats (225-250 grams) were anesthetized with isoflurane for surgical placement of jugular vein catheter. Animals were kept fasted over night and maintained on a 12 hours light/dark cycle. Three rats were dosed NCE (5 mg/Kg) orally and intravenously on day 0 and day 2.
At each time point blood was collected by jugular vein. Plasma was stored frozen at −20° C. until analysis. The concentrations of the NCE compound in plasma were determined using LC-MS/MS method. Schedule time points: Pre dose 0.25, 0.5, 1, 1.5, 2, 3, 4, 6, 8, 10, 12 and 24 hours after dosing (n=3). The NCE compounds were quantified in plasma by validated LC-MS/MS method using solid phase extraction technique. NCE compounds were quantified in the calibration range of 2-2000 ng/mL in plasma. Study samples were analyzed using calibration samples in the batch and quality control samples spread across the batch.
Pharmacokinetic parameters Cmax, Tmax, AUCt, T1/2 and Bioavailability were calculated by non-compartmental model using software WinNonlin version 5.0.1.

Structure (SMILES) | Inference [1] | Exploration time mean ± S.E.M, Familiar object [1] | Exploration time mean ± S.E.M, Novel object [1] | EC50 [2] | Kp [3] | bioavailability [4] | AUC(0-t) ([4]; Intravenous) | Cmax ([4]; Intravenous) | Tmax ([4]; Intravenous) | half-life ([4]; Intravenous) | AUC(0-t) ([4]; Oral) | Cmax ([4]; Oral) | Tmax ([4]; Oral) | half-life ([4]; Oral)
CC(C)n1c(=O)c(C(=O)NCCCN2C3CC4CC(C3)CC2C4)c(O)c2ccccc21.Cl [Example 1, N-[(2-Azatricyclo[3.3.1.1^3,7]dec-2-yl)propyl]-4-hydroxy-1-isopropyl-2-oxo-1,2-dihydroquinoline-3-carboxamide hydrochloride] | Active | 7.87 ± 0.83 s | 12.56 ± 1.31 s | 230 nM | 0.2 ± 0.04 | 26 ± 11% | 3020 ± 980 ng·h/mL | 1170 ± 241 ng/mL | 0.08 h | 1.88 ± 1.15 h | 801 ± 105 ng·h/mL | 211 ± 32 ng/mL | 0.83 ± 0.29 h | 2.37 ± 0.6 h
CC(C)n1c(=O)c(C(=O)NCCCN2C3CC4CC2CC(O)(C4)C3)c(O)c2ccccc21 [Example 4, N-[(5-Hydroxy-2-azatricyclo[3.3.1.1^3,7]dec-2-yl)propyl]-4-hydroxy-1-isopropyl-2-oxo-1,2-dihydroquinoline-3-carboxamide] | Active | 6.72 ± 1.92 s | 11.86 ± 1.65 s | 421 nM | 0.66 ± 0.1 | 34 ± 6% | 1660 ± 498 ng·h/mL | 803 ± 62 ng/mL | 0.08 h | 2.64 ± 0.89 h | 547 ± 126 ng·h/mL | 216 ± 78 ng/mL | 0.33 h | 1.8 ± 0.36 h
